Measured values from the supplement of paper PMC10307832.

Key:
Assay in all cases: relative viability (nuclei count vs DMSO), 5 days (fraction); higher = more cells survive
[1] = compound: CN(C)CC1=CC(=CC=C1)N=C(C2=CC=CC=C2)C3=C(NC4=C3C=CC(=C4)C(=O)N(C)C)O + CC(C)C[C@H](NC(=O)[C@H](Cc1ccccc1)NC(=O)c1cnccn1)B(O)O [Bortezomib] (partner 0.002 µM)
Outline: (§1)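 Lung cancer cell lines were seeded in 1536-well plates and dosed by pin tool the next day, with either a single drug or a fixed anchor-drug dose combined with five library-drug doses (not always all listed) spaced in √10 steps. Five days later, one step fixed the cells and stained their nuclei (final 0.05% Triton X-100, 1% formaldehyde, 1 ug/ml Hoechst), and nuclei were counted on 4× images. Relative viability is the nuclei count in treated wells divided by the count in vehicle wells, and each value is the median of duplicate plates.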

[2] = compound: CN(C)CC1=CC(=CC=C1)N=C(C2=CC=CC=C2)C3=C(NC4=C3C=CC(=C4)C(=O)N(C)C)O + CCNC(=O)c1noc(-c2cc(C(C)C)c(O)cc2O)c1-c1ccc(CN2CCOCC2)cc1 [Luminespib] (partner 0.01 µM)
Outline: as §1

[3] = compound: CN(C)CC1=CC(=CC=C1)N=C(C2=CC=CC=C2)C3=C(NC4=C3C=CC(=C4)C(=O)N(C)C)O + CC(=O)c1c(C)c2cnc(Nc3ccc(N4CCNCC4)cn3)nc2n(C2CCCC2)c1=O [Palbociclib] (partner 0.5 µM)
Outline: as §1

[4] = compound: CN(C)CC1=CC(=CC=C1)N=C(C2=CC=CC=C2)C3=C(NC4=C3C=CC(=C4)C(=O)N(C)C)O + Cc1nc(Nc2ncc(C(=O)Nc3c(C)cccc3Cl)s2)cc(N2CCN(CCO)CC2)n1 [Dasatinib] (partner 0.075 µM)
Outline: as §1

Row | Cell Line | relative viability ([1]; first compound 0.08 µM) | relative viability ([1]; first compound 0.253 µM) | relative viability ([1]; first compound 0.8 µM) | relative viability ([1]; first compound 2.53 µM) | relative viability ([1]; first compound 8 µM) | relative viability ([2]; first compound 0.08 µM) | relative viability ([2]; first compound 0.253 µM) | relative viability ([2]; first compound 0.8 µM) | relative viability ([2]; first compound 2.53 µM) | relative viability ([2]; first compound 8 µM) | relative viability ([3]; first compound 0.08 µM) | relative viability ([3]; first compound 0.253 µM) | relative viability ([3]; first compound 0.8 µM) | relative viability ([3]; first compound 2.53 µM) | relative viability ([3]; first compound 8 µM) | relative viability ([4]; first compound 0.08 µM) | relative viability ([4]; first compound 0.253 µM) | relative viability ([4]; first compound 0.8 µM) | relative viability ([4]; first compound 2.53 µM) | relative viability ([4]; first compound 8 µM)
1 | NCI-H2126 | 1.14 | 1.08 | 1.13 | 1.07 | 1.1 | 0.993 | 0.858 | 0.937 | 0.883 | 0.886 | 0.373 | 0.362 | 0.286 | 0.363 | 0.36 | 0.717 | 0.676 | 0.631 | 0.607 | 0.635
2 | RERF-LC-KJ | 1.36 | 1.12 | 1.07 | 1.01 | 1.02 | 1.34 | 1.4 | 1.25 | 1.13 | 1.23 | 1.08 | 1.05 | 1.01 | 0.992 | 0.982 | 0.931 | 0.831 | 0.876 | 0.749 | 0.793
3 | NCI-H2342 | – | – | – | – | – | 0.775 | 0.597 | 0.71 | 0.771 | 0.871 | 0.519 | 0.528 | 0.549 | 0.547 | 0.605 | 0.281 | 0.399 | 0.287 | 0.329 | 0.338
4 | A-427 | 0.986 | 0.941 | 1.02 | 0.935 | 0.98 | 0.995 | 0.929 | 1 | 0.667 | 0.756 | 0.558 | 0.5 | 0.508 | 0.505 | 0.465 | 0.741 | 0.698 | 0.653 | 0.791 | 0.679
5 | HARA | 1.06 | 1.1 | 1.06 | 1.02 | 1.05 | 0.867 | 0.742 | 0.763 | 0.747 | 0.656 | 0.242 | 0.223 | 0.247 | 0.302 | 0.236 | 0.227 | 0.306 | 0.231 | 0.258 | 0.241
6 | HCC-78 | 0.596 | 0.458 | 0.468 | 0.512 | 0.405 | – | – | – | – | – | 0.504 | 0.516 | 0.501 | 0.403 | 0.52 | 0.329 | 0.521 | 0.353 | 0.366 | 0.405
7 | NCI-H1792 | 0.641 | 0.911 | 0.906 | 0.933 | 0.911 | 0.501 | 0.453 | 0.386 | 0.452 | 0.385 | 0.666 | 0.638 | 0.673 | 0.641 | 0.665 | 0.903 | 0.856 | 0.851 | 0.646 | 0.598
8 | NCI-H2347 | 0.828 | 1.22 | 0.83 | 1.17 | 1.12 | 0.355 | 0.444 | 0.34 | 0.383 | 0.298 | 0.428 | 0.389 | 0.445 | 0.456 | 0.518 | 0.347 | 0.326 | 0.293 | 0.252 | 0.2
9 | ABC-1 | 0.324 | 0.312 | 0.264 | 0.274 | 0.316 | 0.609 | 0.618 | 0.422 | 0.445 | 0.552 | 0.775 | 0.795 | 0.588 | 0.545 | 0.569 | 0.619 | 0.617 | 0.557 | 0.605 | 0.577
10 | Calu-6 | 1.02 | 1.06 | 1.05 | 1.13 | 1.06 | – | – | – | – | – | – | – | – | – | – | – | – | – | – | –
11 | IA-LM | – | 0.876 | 1.12 | 1.06 | 1.11 | – | – | – | – | – | – | – | – | – | – | – | – | – | – | –
12 | NCI-H358 | – | – | – | – | – | 0.304 | 0.277 | 0.331 | 0.414 | 0.276 | 0.122 | 0.139 | 0.141 | 0.149 | 0.17 | 0.171 | 0.158 | 0.138 | 0.163 | 0.183
13 | EBC-1 | 0.551 | 0.632 | 0.605 | 0.737 | 0.598 | – | – | – | – | – | – | – | – | – | – | – | – | – | – | –
14 | SK-MES-1 | – | – | – | – | – | 0.544 | 0.749 | 0.678 | 0.834 | 0.521 | 0.325 | 0.277 | 0.357 | 0.305 | 0.343 | 0.438 | 0.349 | 0.25 | 0.388 | 0.311
15 | NCI-H1563 | 0.868 | 0.921 | 0.729 | 0.755 | 0.737 | 0.49 | 0.467 | 0.538 | 0.576 | 0.495 | – | – | – | – | – | 0.437 | 0.489 | 0.579 | 0.389 | 0.411
16 | HCC-366 | 0.949 | 1.01 | 1.03 | 0.906 | 0.9 | – | – | – | – | – | 0.406 | 0.364 | 0.404 | 0.412 | 0.341 | 0.71 | 0.8 | 0.592 | 0.502 | 0.564
17 | NCI-H1944 | – | – | – | – | – | 0.758 | 0.766 | 0.785 | 0.657 | 0.585 | 0.32 | 0.344 | 0.282 | 0.357 | 0.33 | 0.216 | 0.234 | 0.219 | 0.179 | 0.156
18 | NCI-H596 | 1.05 | 1.17 | 1.07 | 1.11 | 1.26 | 0.974 | 1.24 | 0.993 | 1.14 | 0.551 | – | – | – | – | – | 0.575 | 0.648 | 0.628 | 0.618 | 0.602
19 | NCI-H1395 | – | – | – | – | – | 0.594 | 0.778 | 0.672 | 0.653 | 0.86 | 0.617 | 0.612 | 0.698 | 0.544 | 0.602 | 0.402 | 0.373 | 0.455 | 0.433 | 0.399
20 | NCI-H2170 | – | – | – | – | – | 0.791 | 0.566 | 0.53 | 0.667 | 0.549 | 0.443 | 0.384 | 0.341 | 0.368 | 0.397 | 0.554 | 0.487 | 0.292 | 0.575 | 0.519
